Experimental data reported in PMC7756583, “Hydroxamic Acids Immobilized on Resins (HAIRs): Synthesis of Dual‐Targeting HDAC Inhibitors and HDAC Degraders (PROTACs)” (Angewandte Chemie (International Ed. in English), 2020).
Values joined by “and” are separate entries in the source; they are usually repeats but may differ in a detail not shown here. Equal entries are not always repeated. “Also recorded” adds a separate entry of the source. Where two headings read alike, the source gives them in different places.

Tests used:
[1] = tested on: human primary glioblastoma cell line U251; assay: MTT cell viability assay, U251; type: cell-based; details: for IC50: Homo sapiens, read-out: Antiproliferative Effect IC50 U251
[2] = tested on: human primary glioblastoma cell line U87; assay: MTT cell viability assay, U87; type: cell-based; details: 72 h, read-out: Antiproliferative Effect IC50 U87
[3] = tested on: human tongue squamous cell carcinoma cell line Cal27; assay: MTT cell viability assay, Cal27; type: cell-based; details: for IC50: Homo sapiens, read-out: Antiproliferative Effect IC50 Cal27
HDAC1 [4] = target: T1, HDAC1 (Homo sapiens, UniProt Q13547); assay: In-vitro human HDAC1 fluorogenic inhibition assay (ZMAL substrate); type: biochemical
T1 sequence (Q13547 whole entry): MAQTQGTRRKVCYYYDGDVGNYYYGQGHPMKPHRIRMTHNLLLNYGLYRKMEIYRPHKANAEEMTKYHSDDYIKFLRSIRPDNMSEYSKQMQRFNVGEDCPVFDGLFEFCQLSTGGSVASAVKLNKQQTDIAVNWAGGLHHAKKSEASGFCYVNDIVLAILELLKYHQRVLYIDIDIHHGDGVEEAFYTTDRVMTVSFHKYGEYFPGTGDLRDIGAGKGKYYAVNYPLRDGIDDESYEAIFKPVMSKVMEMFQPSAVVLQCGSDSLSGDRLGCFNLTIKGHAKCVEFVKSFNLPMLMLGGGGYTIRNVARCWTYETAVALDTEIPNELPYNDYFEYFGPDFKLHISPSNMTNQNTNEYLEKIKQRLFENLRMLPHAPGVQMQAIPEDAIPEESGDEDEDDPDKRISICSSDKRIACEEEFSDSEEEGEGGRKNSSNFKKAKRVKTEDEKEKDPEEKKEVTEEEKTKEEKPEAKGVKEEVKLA

HDAC6 [5] = target: T2, HDAC6 (Homo sapiens, UniProt Q9UBN7); assay: In-vitro human HDAC6 fluorogenic inhibition assay (ZMAL substrate); type: biochemical
T2 sequence (Q9UBN7 1-1215): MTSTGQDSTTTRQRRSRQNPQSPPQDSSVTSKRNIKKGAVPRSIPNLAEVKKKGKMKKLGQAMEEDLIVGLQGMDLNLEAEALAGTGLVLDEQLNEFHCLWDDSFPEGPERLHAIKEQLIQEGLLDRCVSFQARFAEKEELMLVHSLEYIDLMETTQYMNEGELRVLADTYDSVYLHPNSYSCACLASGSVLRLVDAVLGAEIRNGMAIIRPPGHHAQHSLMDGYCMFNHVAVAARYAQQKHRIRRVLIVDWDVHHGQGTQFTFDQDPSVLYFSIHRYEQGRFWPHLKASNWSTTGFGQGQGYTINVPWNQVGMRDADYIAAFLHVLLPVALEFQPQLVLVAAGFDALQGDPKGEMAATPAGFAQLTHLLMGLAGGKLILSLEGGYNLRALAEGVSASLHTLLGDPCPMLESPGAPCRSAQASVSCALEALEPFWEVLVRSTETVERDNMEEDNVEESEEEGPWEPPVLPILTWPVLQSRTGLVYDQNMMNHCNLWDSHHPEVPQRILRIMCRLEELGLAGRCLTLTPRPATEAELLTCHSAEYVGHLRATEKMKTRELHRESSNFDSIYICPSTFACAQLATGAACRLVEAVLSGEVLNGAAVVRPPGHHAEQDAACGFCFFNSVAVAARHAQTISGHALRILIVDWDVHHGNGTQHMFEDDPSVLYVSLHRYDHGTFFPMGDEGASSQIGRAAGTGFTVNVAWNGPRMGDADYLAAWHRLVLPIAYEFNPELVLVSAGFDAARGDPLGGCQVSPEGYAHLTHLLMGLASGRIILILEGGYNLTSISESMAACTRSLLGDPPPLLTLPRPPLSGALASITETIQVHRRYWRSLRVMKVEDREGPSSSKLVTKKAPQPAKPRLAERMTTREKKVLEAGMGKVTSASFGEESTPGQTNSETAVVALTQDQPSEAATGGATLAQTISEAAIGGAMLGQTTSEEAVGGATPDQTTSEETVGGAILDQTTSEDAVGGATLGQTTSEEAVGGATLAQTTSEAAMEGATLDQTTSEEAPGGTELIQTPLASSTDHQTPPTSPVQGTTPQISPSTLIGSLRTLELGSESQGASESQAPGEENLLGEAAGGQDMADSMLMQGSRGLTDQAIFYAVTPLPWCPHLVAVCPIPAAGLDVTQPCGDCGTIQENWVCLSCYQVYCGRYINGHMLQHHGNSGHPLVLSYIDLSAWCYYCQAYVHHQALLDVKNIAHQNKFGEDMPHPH

[6] = tested on: γ-H2AX formation in Cal27 cells; assay: γ-H2AX expression DNA damage assay; type: cell-based, human
human recombinant HDAC3 = human recombinant HDAC3 (Homo sapiens, UniProt O15379); assay: In-vitro human HDAC3 fluorogenic inhibition assay (ZMAL substrate); type: biochemical
Sequence of human recombinant HDAC3 (O15379 whole entry): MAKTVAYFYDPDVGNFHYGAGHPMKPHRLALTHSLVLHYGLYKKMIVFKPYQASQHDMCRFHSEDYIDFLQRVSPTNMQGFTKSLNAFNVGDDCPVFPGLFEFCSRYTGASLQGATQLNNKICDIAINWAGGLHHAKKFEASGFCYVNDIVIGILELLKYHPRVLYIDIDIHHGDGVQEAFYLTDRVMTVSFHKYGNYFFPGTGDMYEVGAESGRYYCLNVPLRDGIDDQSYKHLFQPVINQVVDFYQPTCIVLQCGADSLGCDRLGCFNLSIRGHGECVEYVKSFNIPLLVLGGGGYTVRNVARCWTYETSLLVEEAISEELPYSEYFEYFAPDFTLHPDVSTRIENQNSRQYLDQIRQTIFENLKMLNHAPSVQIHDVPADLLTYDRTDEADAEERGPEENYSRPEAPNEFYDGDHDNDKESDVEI
Sequence of human recombinant HDAC3 (Q9Y618 395-489 partner limits assumed): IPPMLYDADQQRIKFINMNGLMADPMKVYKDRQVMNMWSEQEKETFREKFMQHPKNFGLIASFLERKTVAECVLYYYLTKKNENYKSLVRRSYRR

[7] = tested on: caspase 3/7 activation in Cal27 cells; type: cell-based, human
human recombinant HDAC2 = human recombinant HDAC2 (Homo sapiens, UniProt Q92769); assay: In-vitro human HDAC2 fluorogenic inhibition assay (ZMAL substrate); type: biochemical
Sequence of human recombinant HDAC2 (Q92769 whole entry): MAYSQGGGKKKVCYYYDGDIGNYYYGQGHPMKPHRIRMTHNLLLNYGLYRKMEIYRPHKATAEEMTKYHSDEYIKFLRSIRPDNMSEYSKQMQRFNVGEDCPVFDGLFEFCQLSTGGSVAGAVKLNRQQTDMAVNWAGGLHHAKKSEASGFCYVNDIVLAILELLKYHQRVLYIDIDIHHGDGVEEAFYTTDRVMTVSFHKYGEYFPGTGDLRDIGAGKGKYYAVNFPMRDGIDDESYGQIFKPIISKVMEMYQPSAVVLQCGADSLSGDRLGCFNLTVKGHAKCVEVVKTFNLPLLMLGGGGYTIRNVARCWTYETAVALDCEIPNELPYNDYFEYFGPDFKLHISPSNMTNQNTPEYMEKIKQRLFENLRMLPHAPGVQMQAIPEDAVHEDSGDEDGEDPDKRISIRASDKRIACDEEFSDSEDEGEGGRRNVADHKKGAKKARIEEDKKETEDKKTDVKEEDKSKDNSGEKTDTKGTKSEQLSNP

Cal27 cells = type: cell-based, human
HDAC8 recombinant enzyme = target: T3, HDAC8 recombinant enzyme (Homo sapiens, UniProt Q9BY41); assay: In-vitro human HDAC8 assay (Boc-Lys-(TFa)-AMC substrate); type: biochemical
T3 sequence (Q9BY41 1-377): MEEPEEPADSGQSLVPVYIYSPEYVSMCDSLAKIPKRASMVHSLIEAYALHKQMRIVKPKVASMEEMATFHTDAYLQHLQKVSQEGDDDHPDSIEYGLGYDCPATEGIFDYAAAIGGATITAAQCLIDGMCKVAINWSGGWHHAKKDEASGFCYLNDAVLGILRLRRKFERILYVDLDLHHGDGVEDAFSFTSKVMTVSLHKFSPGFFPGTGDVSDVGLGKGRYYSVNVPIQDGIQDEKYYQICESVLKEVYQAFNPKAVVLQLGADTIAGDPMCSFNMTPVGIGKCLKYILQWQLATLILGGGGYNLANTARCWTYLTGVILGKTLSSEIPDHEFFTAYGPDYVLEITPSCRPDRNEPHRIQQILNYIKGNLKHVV

HDAC6 [8] = target: T2, HDAC6; assay: Immunoblot, HDAC6 degradation in HL60 cells; type: cell-based; details: 0.1 μM, 1 μM and 10 μM, 48 hours
[9] = tested on: α-tubulin acetylation (marker of reduced HDAC6 activity); assay: Immunoblot, acetylated α-tubulin in HL60 cells; type: cell-based
HDAC1 [10] = target: T1, HDAC1; assay: Immunoblot, HDAC1 degradation in HL60 cells; type: cell-based; details: 0.1 μM, 1 μM and 10 μM, 48 hours
[11] = tested on: histone H3 acetylation (marker of reduced HDAC1-3 activity); assay: Immunoblot, acetyl histone H3 in HL60 cells; type: cell-based
[12] = U-251, MTT assay, 72 h, n≥3, each in triplicate wells, n.e.: no effect up to 100 μM
[13] = fluorogenic assay, n≥2, each in duplicate wells, read-out: Target Inhibition IC50 HDAC1
[14] = MTT assay, n≥3, each in triplicate wells
[15] = fluorogenic assay, n≥2, each in duplicate wells, read-out: Target Inhibition IC50 HDAC6
[16] = CAL-27, MTT assay, 72 h, n≥3, each in triplicate wells
[17] = n≥2, each in duplicate wells, read-out: HDAC Inhibition IC50 HDAC 3
[18] = n≥2, each in duplicate wells, read-out: HDAC Inhibition IC50 HDAC 2

Row | SMILES | IC50 ([1]; U-251, 72 h) | IC50 [2] | IC50 ([3]; CAL-27, 72 h) | IC50 [1, 12] | IC50 (HDAC1 [4]; [13]) | IC50 [2, 14] | IC50 (HDAC6 [5]; [15]) | IC50 [3, 16] | IC50 (HDAC1 [4]) | IC50 (HDAC6 [5]) | further results
1 | O=C(O)CCCc1ccc(N(CCCl)CCCl)cc1 [CAB, chlorambucil, reference compound] | 48.7 ± 11.9 µM | 86.3 ± 17.5 µM | 23.7 ± 2.26 µM | – | – | – | – | – | – | – | –
2 | O=C(NO)c1ccc(CNC(=O)c2ncn3c(=O)n(CCCl)nnc23)cc1 [Compound 3 b] | – | – | – | 44.5 ± 8.94 µM | 0.394 ± 0.02 µM | 147 ± 19.7 µM | 0.023 ± 0.002 µM | 16.8 ± 3.62 µM | – | – | –
3 | O=C(CCCc1ccc(N(CCCl)CCCl)cc1)NCc1ccc(C(=O)NO)cc1 [Compound 3 c] | 22 ± 3.09 µM | 23.9 ± 3.41 µM | 6.89 ± 1.04 µM | – | – | – | – | – | 0.518 ± 0.065 µM | 0.032 ± 0.003 µM | –
4 | Cn1nnc2c(C(=O)NCCCC(=O)NO)ncn2c1=O [Compound 3 d] | – | – | – | – | 35.1 ± 5.32 µM | 323 ± 107 µM | 4.99 ± 0.129 µM | 97.1 ± 16.3 µM | – | – | Antiproliferative Effect IC50 U251 ([1]; MTT assay, 72 h, n≥3, each in triplicate wells, n.e.: no effect up to 100 μM): n.e.
5 | O=C(CCCNC(=O)c1ncn2c(=O)n(CCCl)nnc12)NO [Compound 3 e] | – | – | – | 461 ± 89.9 µM | 16.2 ± 0.07 µM | 413 ± 77.7 µM | 2.37 ± 0.086 µM | 87.8 ± 9.52 µM | – | – | –
6 | O=C(CCCNC(=O)CCCc1ccc(N(CCCl)CCCl)cc1)NO [Compound 3 f] | 20.1 ± 2.41 µM | 46.1 ± 5.71 µM | 8.67 ± 1.31 µM | – | – | – | – | – | 8.21 ± 0.183 µM | 4.6 ± 0.082 µM | –
7 | O=C(CCCCCNC(=O)c1ncn2c(=O)n(CCCl)nnc12)NO [Compound 3 g] | – | – | – | 140 ± 17.8 µM | 0.681 ± 0.015 µM | 262 ± 75.6 µM | 0.094 ± 0.002 µM | 29 ± 3.73 µM | – | – | –
8 | O=C(CCCCCNC(=O)CCCc1ccc(N(CCCl)CCCl)cc1)NO [Compound 3 h] | 25.1 ± 3.27 µM | 43.9 ± 15.3 µM | 7.5 ± 0.62 µM | – | – | – | – | – | 0.444 ± 0.053 µM | 0.121 ± 0.008 µM | –
9 | Cn1nnc2c(C(=O)NCCCCCCC(=O)NO)ncn2c1=O [Compound 3 i] | – | – | – | 86.2 ± 13.1 µM | 0.161 ± 0.006 µM | 166 ± 33.6 µM | 0.031 ± 0.002 µM | 10.2 ± 1.54 µM | – | – | –
10 | O=C(CCCCCCNC(=O)c1ncn2c(=O)n(CCCl)nnc12)NO [Compound 3 j] | – | – | – | 48.2 ± 7.35 µM | 0.143 ± 0.005 µM | 122 ± 56 µM | 0.038 ± 0.004 µM | 9.9 ± 1.24 µM | – | – | –
11 | O=C(CCCCCCNC(=O)CCCc1ccc(N(CCCl)CCCl)cc1)NO [Compound 3 k] | 27 ± 3.55 µM | 39.2 ± 7.16 µM | 6.17 ± 0.51 µM | – | – | – | – | – | 0.244 ± 0.041 µM | 0.063 ± 0.001 µM | –
12 | Cn1nnc2c(C(=O)NCc3ccc(/C=C/C(=O)NO)cc3)ncn2c1=O [Compound 3 l] | – | – | – | 97.8 ± 9.07 µM | 0.146 ± 0.008 µM | 141 ± 20.7 µM | 0.072 ± 0.008 µM | 15.4 ± 1.61 µM | – | – | γ-H2AX formation ([6]; Cal27 cells, IC50 (from MTT assay), 24 h): not different from control; γ-H2AX formation ([6]; Cal27 cells, fivefold IC50 (from MTT assay), 24 h): only weak DNA damage
13 | O=C(/C=C/c1ccc(CNC(=O)CCCc2ccc(N(CCCl)CCCl)cc2)cc1)NO [Compound 3 n] | 14.5 ± 1.59 µM | 19.8 ± 3.16 µM | 2.68 ± 0.31 µM | – | – | – | – | – | 0.151 ± 0.021 µM | 0.062 ± 0.001 µM | IC50 (human recombinant HDAC3): 0.187 ± 0.009 µM; caspase 3/7 activation [7]: significantly more effective than the sum of the effects of 3 o and CAB; also recorded: significantly stronger than the sum of the effects of even 100 μM CAB and 30 μM 3 o; combination index (CI) [7]: 0,92 and 0,69 and 0,70; IC50 (human recombinant HDAC2): 0.432 ± 0.015 µM; γ-H2AX formation [6]: significant increase in γ‐H2AX formation; also recorded: significantly more active than 3 l and 3 m; also recorded: significantly more effective than the sum of the effects of 3 o and CAB; also recorded: significantly greater DNA damage (γ‐H2AX assay) than 3 o; induction of apoptosis (subG1 nuclei) (Cal27 cells): more potent than 3 o, cisplatin, vorinostat, and CAB in inducing apoptosis; IC50 (HDAC8 recombinant enzyme): 4.04 ± 0.28 µM; improved antiproliferative effect in comparison to parent compound CAB [3]: up to 10 fold
14 | O=C(/C=C/c1ccc(CNC(=O)CCCc2ccccc2)cc1)NO [Compound 3 o] | – | – | – | 23.9 ± 3.51 µM | 0.156 ± 0.008 µM | 27.7 ± 6.52 µM | 0.066 ± 0.001 µM | 6.59 ± 0.44 µM | – | – | IC50 (human recombinant HDAC3; [17]): 0.117 ± 0.02 µM; IC50 (human recombinant HDAC2; [18]): 0.194 ± 0.034 µM
15 | NC(=O)c1ncn2c(=O)n(CCCl)nnc12 [MTZ, mitozolomide, reference compound] | – | – | – | 84.5 ± 7.3 µM | – | 57.4 ± 9.51 µM | – | 3.56 ± 0.29 µM | – | – | –
16 | O=C(CCCCCCNC(=O)c1ccc(NC(=O)COCCOCCNC(=O)COc2cccc3c2C(=O)N(C2CCC(=O)NC2=O)C3=O)cc1)NO (stereo not shown) [PROTAC 4] | – | – | – | – | 0.174 ± 0.009 µM | – | 0.027 µM | – | – | – | HDAC6 degradation (Western blot) (HDAC6 [8]): able to degrade especially HDAC6; IC50 (human recombinant HDAC3; [17]): 0.159 ± 0.031 µM; acetylation of α-tubulin [9]: significant hyperacetylation; IC50 (human recombinant HDAC2; [18]): 0.248 ± 0.049 µM; HDAC1 degradation (Western blot) (HDAC1 [10]): also HDAC1 in a concentration dependent manner; acetylation of histone H3 [11]: significant hyperacetylation; IC50 (HDAC8 recombinant enzyme; read-out: HDAC Inhibition IC50 HDAC 8): 3.42 ± 0.32 µM
17 | Cn1nnc2c(C(N)=O)ncn2c1=O [TMZ, temozolomide, reference compound] | – | – | – | 457 ± 57.3 µM | – | 144 ± 15.6 µM | – | 56.8 ± 5.05 µM | – | – | –
18 | Cn1c(CCCCCCC(=O)NO)nc2cc(N(CCCl)CCCl)ccc21 [tinostamustine, reference compound] | 10.2 ± 0.62 µM | 8.32 ± 0.55 µM | 2.94 ± 0.07 µM | – | – | – | – | – | 0.047 ± 0.003 µM | 0.011 ± 0.001 µM | –
